Measured values as given in patent US20240277706A1, “METHODS AND COMPOSTITIONS FOR TARGETING PD-L1” (Aligos Therapeutics, Inc., priority 2023, published 2024).

Columns and labels:
PD-1/PD-L1 interaction = target: T1, PD-1/PD-L1 interaction (Homo sapiens, UniProt Q9NZQ7); test: PD-1/PD-L1 NFAT Reporter Assay (Jurkat/CHO co-culture); type: cell-based; details: Jurkat cells overexpressing PD-1 with NFAT luciferase, co-culture with PD-L1 expressing CHO cells, 6 hrs at 37° C.
T1 construct: expressed in transfected cells; Jurkat cells (PD-1 and NFAT-luciferase)
Procedure: Blocking the PD-1/PD-L1 interaction will release the inhibitory signal and results in TCR signaling and NFAT-mediated luciferase activity.
CHO cells expressing surface-bound anti-CD3 antibodies and PD-L1 were first seeded overnight and treated with the compounds. Jurkat cells overexpressing PD-1 and a luciferase construct under NFAT promoter were then immediately seeded on the monolayer of CHO cells. The co-culture was then incubated for 6 hrs at 37° C. Luciferase activity was assessed by adding the ONE-Glo reagent and measuring luminescence with a plate reader. EC50 values were determined from the fit of the dose-response curves.

PD-1/PD-L1 = PD-1/PD-L1 (Homo sapiens, UniProt Q9NZQ7); test: PDL1/PD1 Binding Assay; details: PDL1-6×His 0.3 nM, PD1-Fc-Avi-Biotin 2.5 nM, acceptor/donor beads, Envision reader; read-out: PD-1/PD-L1 PPI IC50
Procedure: Compounds to be tested were serially diluted in DMSO, and further diluted in assay buffer (25 mM Hepes pH 7.4, 150 mM NaCl, 0.005% Tween 20, BSA 0.01%). Diluted compounds were added to the wells with final concentration of DMSO at 1%. PDL1-6×His protein was added to the wells, mixed well with compound. The plates were incubated for 30 min at room temperature. PD1-Fc-Avi-Biotin protein was added to the wells. Final concentration of PDL1 and PD1 protein is 0.3 nM and 2.5 nM, respectively. After a binding time of 30 min at room temperature, Anti-6×His Acceptor beads (final concentration 20 ug/ml) were added to the wells, and the incubation continued for 1 h. Streptavidin Donor beads (final concentration 20 ug/mL) were added at reduced light. The plates were sealed with foil and incubated in the dark for additional 1 h or overnight before reading on an Envision reader. The IC50 values were determined by fitting the curves using a four-parameter equation in Graphpad Prism 8.

T1 sequence (Q9NZQ7 19-290): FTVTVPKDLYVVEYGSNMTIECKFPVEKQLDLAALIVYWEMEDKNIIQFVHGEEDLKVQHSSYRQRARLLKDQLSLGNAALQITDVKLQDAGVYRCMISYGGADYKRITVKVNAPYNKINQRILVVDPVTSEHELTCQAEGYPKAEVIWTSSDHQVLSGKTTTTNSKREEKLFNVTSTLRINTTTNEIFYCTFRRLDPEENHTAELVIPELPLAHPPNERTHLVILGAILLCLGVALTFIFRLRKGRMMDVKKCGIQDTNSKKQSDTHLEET
PD-1/PD-L1, sequence (Q9NZQ7 19-238 limits assumed): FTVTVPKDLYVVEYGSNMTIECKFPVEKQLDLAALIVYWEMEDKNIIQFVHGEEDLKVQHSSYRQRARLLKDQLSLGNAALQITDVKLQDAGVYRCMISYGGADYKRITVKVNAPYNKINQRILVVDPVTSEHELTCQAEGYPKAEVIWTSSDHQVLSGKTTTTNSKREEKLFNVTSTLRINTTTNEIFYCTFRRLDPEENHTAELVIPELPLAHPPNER

Row | SMILES | EC50 (PD-1/PD-L1 interaction) [nM] | IC50 (PD-1/PD-L1) [nM] | Jurkat NFAT EC50 (PD-1/PD-L1 interaction)
1 | COc1nc(-c2cccc(-c3cccc(NC(=O)c4ccnn(C)c4=O)c3Cl)c2Cl)ccc1CN1CC(c2nnn[nH]2)C1 [Compound C-26] | 10 to 100 | ≤ 10 | 
2 | COc1nc(-c2cccc(-c3cccc(NC(=O)c4ccnn(C)c4=O)c3Cl)c2Cl)ccc1CN1CCC(C(=O)O)CC1 [Compound C-43] | 10 to 100 | ≤ 10 | 
3 | CCOC(=O)C1CCN(Cc2ccc(-c3cccc(-c4cccc(NC(=O)c5ccnn(C)c5=O)c4Cl)c3Cl)nc2OC)CC1 [Compound C-51] |  | ≤ 10 | n.r
4 | COc1nc(-c2cccc(-c3cccc(NC(=O)c4ccnn(C)c4=O)c3Cl)c2Cl)ccc1CN1CCC(c2nnn[nH]2)CC1 [Compound C-95] | 10 to 100 | ≤ 10 | 
5 | COc1nc(-c2cccc(-c3cccc(NC(=O)c4ccnn(C)c4=O)c3Cl)c2Cl)ccc1CN1CCC(C)(C(=O)O)CC1 [Compound C-96] | 10 to 100 | ≤ 10 | 
6 | COc1nc(-c2cccc(-c3cccc(NC(=O)c4ccnn(C)c4=O)c3Cl)c2Cl)ccc1CN1CCC(F)(C(=O)O)CC1 [Compound C-97] | 10 to 100 | ≤ 10 | 
7 | COc1nc(-c2cccc(-c3cccc(NC(=O)c4ccnn(C)c4=O)c3Cl)c2Cl)ccc1CN1CC2CC(C1)C2C(=O)O (stereo not drawn) [Compound C-102] | 10 to 100 | ≤ 10 | 

Results, then the compound that gave them:

Row | EC50 (PD-1/PD-L1 interaction) [nM] | IC50 (PD-1/PD-L1) [nM] | Jurkat NFAT EC50 (PD-1/PD-L1 interaction) | SMILES
8 | 10 to 100 | ≤ 10 |  | COc1nc(-c2cccc(-c3cccc(NC(=O)c4ccnn(C)c4=O)c3Cl)c2Cl)ccc1CN1CCC(OC)(C(=O)O)CC1 [Compound C-98]
9 | 100 to 1000 |  |  | COc1nc(-c2cccc(-c3cccc(NC(=O)c4ccnn(C)c4=O)c3Cl)c2Cl)ccc1CN1CC2CCC(C1)C2C(=O)O (stereo not drawn) [Compound C-99]
10 | 10 to 100 | ≤ 10 |  | COc1nc(-c2cccc(-c3cccc(NC(=O)c4ccnn(C)c4=O)c3Cl)c2Cl)ccc1CN1C[C@@H]2[C@H](C1)[C@H]2C(=O)O [Compound C-100]
11 | 10 to 100 | ≤ 10 |  | COc1nc(-c2cccc(-c3cccc(NC(=O)c4ccnn(C)c4=O)c3Cl)c2Cl)ccc1CN1CCC2(C(=O)O)CC2C1 (stereo not drawn) [Compound C-101]
12 | 10 to 100 | ≤ 10 |  | COc1nc(-c2cccc(-c3cccc(NC(=O)c4ccnn(C)c4=O)c3C)c2Cl)ccc1CN1CCC(C(=O)O)CC1 [Compound C-103]
13 | 10 to 100 | ≤ 10 |  | COc1nc(-c2cccc(-c3cccc(NC(=O)c4ccnn(C)c4=O)c3Cl)c2Cl)cnc1CN1CCC(C(=O)O)CC1 [Compound C-104]
14 | 10 to 100 | ≤ 10 |  | COc1nc(-c2cccc(-c3cccc(NC(=O)c4ccnn(C)c4=O)c3C)c2Cl)cnc1CN1CCC(C(=O)O)CC1 [Compound C-105]
15 | 10 to 100 |  |  | COc1nc(-c2cccc(-c3cccc(NC(=O)c4ccnn(C)c4=O)c3Cl)c2Cl)ccc1CN1CCC(O)(C(=O)O)CC1 [Compound C-106]
16 | 10 to 100 | ≤ 10 |  | CCOC(=O)C1CCN(Cc2ncc(-c3cccc(-c4cccc(NC(=O)c5ccnn(C)c5=O)c4Cl)c3Cl)nc2OC)CC1 [Compound C-107]
